From patent US7012144B2, “Quinolone carboxylic acid derivatives” (Korea Research Institute of Chemical Technology, priority 2001, dated 2006)
In brackets after ≈: the same amount, converted by molar mass. Where two headings read alike, the source gives them in different places.

What was measured:
[1] = system: Escherchia coli TEM; test: Antibacterial activity in vitro (MIC, two-fold dilution, Muller Hinton agar); assay type: cell-based; details: 10^7 CFU/ml, 37° C., 18 hours
Procedure: (§1) The MIC values were determined employing a two-fold dilution method and Muller Hinton agar medium. Each of the Hoechst 345 standard strains having the concentration of 10^7CFU (colony forming unit)/ml was inoculated onto the medium, and incubated at 37° C. for 18 hours.

[2] = system: Streptococcus pyogenes A 77; test: as above; assay type: cell-based
Procedure: as §1

[3] = system: Salmonella typhymurium; test: as above; assay type: cell-based; details: 10^7 CFU/ml, 37° C., 18 hours
Procedure: as §1

[4] = system: Streptococcus faecium MD 8b; test: as above; assay type: cell-based; details: 10^7 CFU/ml, 37° C., 18 hours
Procedure: as §1

[5] = system: Escherchia coli 1507E; test: as above; assay type: cell-based; details: 10^7 CFU/ml, 37° C., 18 hours
Procedure: as §1

[6] = system: Streptococcus pyogenes A 308; test: as above; assay type: cell-based; details: 37° C., 18 hours
Procedure: as §1

[7] = system: Staphylococcus aureus SG 511; test: as above; assay type: cell-based; details: 37° C., 18 hours
Procedure: as §1

[8] = system: Klebsiella oxytoca 1082E; test: as above; assay type: cell-based; details: 10^7 CFU/ml, 37° C., 18 hours
Procedure: as §1

[9] = system: Staphylococcus aureus 285; test: as above; assay type: cell-based
Procedure: as §1

[10] = system: Escherchia coli DC2; test: as above; assay type: cell-based
Procedure: as §1

[11] = system: Pseudomonas aeruginosa 1771M; test: as above; assay type: cell-based
Procedure: as §1

[12] = system: Klebsiella oxytoca 1522E; test: as above; assay type: cell-based; details: 10^7 CFU/ml, 37° C., 18 hours
Procedure: as §1

[13] = system: Escherchia coli DC0; test: as above; assay type: cell-based
Procedure: as §1

[14] = system: Staphylococcus aureus 503; test: as above; assay type: cell-based; details: 10^7 CFU/ml, 37° C., 18 hours
Procedure: as §1

[15] = system: Escherchia coli 078; test: as above; assay type: cell-based; details: 10^7 CFU/ml, 37° C., 18 hours
Procedure: as §1

[16] = system: Pseudomonas aeruginosa 9027; test: as above; assay type: cell-based; details: 10^7 CFU/ml, 37° C., 18 hours
Procedure: as §1

[17] = system: Pseudomonas aeruginosa 1771; test: as above; assay type: cell-based; details: 10^7 CFU/ml, 37° C., 18 hours
Procedure: as §1

[18] = system: Pseudomonas aeruginosa 1592E; test: as above; assay type: cell-based; details: 10^7 CFU/ml, 37° C., 18 hours
Procedure: as §1

[19] = system: calf thymus topoisomerase II; test: Inhibition of the enzyme activity of topoisomerase II; assay type: biochemical; details: concentration to inhibit the enzyme activity of calf thymus topoisomerase II
Procedure: (§2) Selectivity indexes of the compounds of the present invention and control compounds were measured using gyrase purified from of E. coli and calf thymus topoisomerase II obtained from Topogen. Co.
(§3) The selectivity index (S.I.) was calculated by the equation 1. [formula] wherein, IC100, Topo II is the concentration of a compound to inhibit the enzyme activity of topoisomerase II and IC100, Gyrase is the concentration of a compound to inhibit the enzyme activity of gyrase of E. coli.

[20] = target: T1, gyrase of E. coli (Escherichia coli, UniProt P0AES4+P0AES6); test: Inhibition of the enzyme activity of gyrase; assay type: biochemical; details: concentration to inhibit the enzyme activity of gyrase of E. coli
T1 construct: gyrase purified from of E. coli; host or cells: E. coli
Procedure: as §2, §3

[21] = system: Enterobacter cloacae 1321E; test: Antibacterial activity in vitro (MIC, two-fold dilution, Muller Hinton agar); assay type: cell-based; details: 10^7 CFU/ml, 37° C., 18 hours
Procedure: as §1

[22] = system: Enterobacter cloacae P99; test: as above; assay type: cell-based; details: 10^7 CFU/ml, 37° C., 18 hours
Procedure: as §1

[23] = Enterococcus faecium, MD8B, read-out: MIC
[24] = A308, 10^7 CFU/ml, read-out: MIC
[25] = SG511, 10^7 CFU/ml, read-out: MIC
[26] = Pseudomonas aeruginosa, 1771M, 18 h
[27] = Streptococcus pyogenes A 77, 10^7 CFU/ml, 37° C., 18 hours
[28] = Staphylococcus aureus 285, 10^7 CFU/ml, 37° C., 18 hours
[29] = Escherchia coli DC2, 10^7 CFU/ml, 37° C., 18 hours
[30] = Pseudomonas aeruginosa 1771M, 10^7 CFU/ml, 37° C., 18 hours
[31] = Escherchia coli DC0, 10^7 CFU/ml, 37° C., 18 hours

T1 sequence (P0AES4 whole entry, one chain of several): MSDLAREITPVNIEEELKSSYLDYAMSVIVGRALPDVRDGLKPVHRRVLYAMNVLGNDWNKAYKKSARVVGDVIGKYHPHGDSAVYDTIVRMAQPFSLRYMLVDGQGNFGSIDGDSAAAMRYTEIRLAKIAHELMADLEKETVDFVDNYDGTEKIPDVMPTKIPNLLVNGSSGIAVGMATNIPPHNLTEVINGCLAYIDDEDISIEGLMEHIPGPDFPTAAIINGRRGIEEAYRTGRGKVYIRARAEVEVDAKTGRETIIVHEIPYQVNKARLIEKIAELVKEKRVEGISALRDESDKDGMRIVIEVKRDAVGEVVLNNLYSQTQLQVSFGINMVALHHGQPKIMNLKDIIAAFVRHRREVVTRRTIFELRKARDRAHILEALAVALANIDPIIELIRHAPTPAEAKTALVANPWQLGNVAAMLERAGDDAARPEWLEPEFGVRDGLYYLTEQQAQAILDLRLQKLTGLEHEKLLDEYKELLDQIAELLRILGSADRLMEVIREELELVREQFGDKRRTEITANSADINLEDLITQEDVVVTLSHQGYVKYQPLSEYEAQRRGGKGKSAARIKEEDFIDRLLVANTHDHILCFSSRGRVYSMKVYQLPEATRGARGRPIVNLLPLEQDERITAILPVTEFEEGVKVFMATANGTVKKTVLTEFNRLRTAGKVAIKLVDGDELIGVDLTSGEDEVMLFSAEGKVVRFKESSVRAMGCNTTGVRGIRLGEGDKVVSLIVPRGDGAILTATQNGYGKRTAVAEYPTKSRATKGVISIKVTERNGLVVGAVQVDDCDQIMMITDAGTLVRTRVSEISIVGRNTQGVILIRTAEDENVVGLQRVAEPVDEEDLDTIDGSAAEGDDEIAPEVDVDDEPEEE

Row | SMILES | MIC ([1]; read-out: MIC) [µg/mL] | MIC ([3]; read-out: MIC) [µg/mL] | MIC [4, 23] [µg/mL] | MIC ([5]; read-out: MIC) [µg/mL] | MIC [6, 24] [µg/mL] | MIC [7, 25] [µg/mL] | MIC ([8]; read-out: MIC) [µg/mL] | MIC [11, 26] [µg/mL] | MIC ([12]; read-out: MIC) [µg/mL] | MIC ([13]; 18 h) [µg/mL] | MIC ([14]; read-out: MIC) [µg/mL] | MIC ([15]; read-out: MIC) [µg/mL] | MIC ([16]; read-out: MIC) [µg/mL] | MIC ([17]; read-out: MIC) [µg/mL] | MIC ([18]; read-out: MIC) [µg/mL] | IC100, Topo II [19] | IC100, Gyrase [20] [µg/mL] | MIC [1] [µg/mL] | MIC [2, 27] [µg/mL] | MIC [3] [µg/mL] | also measured
1 | O=C(O)c1cn(C2CC2)c2cc(N3CCNCC3)c(F)cc2c1=O [Ciprofloxacin, 1-cyclopropyl-6-fluoro-7-(piperazin-1-yl)-4-oxoquinoline-3-carboxylic acid, reference compound] | 0.007 (≈ 0.0211 µM) | 0.007 (≈ 0.0211 µM) | 0.391 (≈ 1.18 µM) | 0.007 (≈ 0.0211 µM) | 3.12 (≈ 9.43 µM) | 0.195 (≈ 0.589 µM) | < 0.002 | 0.049 (≈ 0.148 µM) | 0.013 (≈ 0.0392 µM) | 0.195 (≈ 0.589 µM) | 0.391 (≈ 1.18 µM) | 0.004 (≈ 0.0121 µM) | 0.195 (≈ 0.589 µM) | 0.195 (≈ 0.589 µM) | 0.195 (≈ 0.589 µM) | 500 µg/mL | 0.5 | – | – | – | MIC ([2]; Streptococcus pyogenes, A77, 18 h): 0.781 µg/mL (≈ 2.36 µM); MIC ([9]; Staphylococcus aureus, 285, 18 h): 0.781 µg/mL (≈ 2.36 µM); MIC ([10]; 18 h): 0.049 µg/mL (≈ 0.148 µM)
2 | COc1c(N2CCC(CN)(c3ccccn3)C2)c(F)cc2c(=O)c(C(=O)O)cn(C3CC3)c12 (stereo not shown) [Compound 3, 1-cyclopropyl-6-fluoro-8-methoxy-7-[{3-aminomethyl-3-(pyridin-2-yl)pyrrolidin}-1-yl]-4-oxo-1,4-dihydroquinolin-3-carboxylic acid] | – | – | – | – | – | – | – | – | – | – | – | – | – | – | – | 1,000 μg/ml | 0.2 | 0.007 (≈ 0.0155 µM) | 0.007 (≈ 0.0155 µM) | 0.007 (≈ 0.0155 µM) | MIC [4]: 0.007 µg/mL (≈ 0.0155 µM); MIC [21]: <0.002 µg/mL; MIC [5]: 0.007 µg/mL (≈ 0.0155 µM); MIC ([6]; 10^7 CFU/ml): 0.013 µg/mL (≈ 0.0287 µM); MIC ([7]; 10^7 CFU/ml): 0.007 µg/mL (≈ 0.0155 µM); MIC [8]: <0.002 µg/mL; MIC [9, 28]: 0.013 µg/mL (≈ 0.0287 µM); MIC [10, 29]: 0.013 µg/mL (≈ 0.0287 µM); MIC [11, 30]: 0.098 µg/mL (≈ 0.217 µM); MIC [12]: 0.013 µg/mL (≈ 0.0287 µM); MIC [13, 31]: 0.049 µg/mL (≈ 0.108 µM); MIC [22]: 0.007 µg/mL (≈ 0.0155 µM); MIC [14]: 0.007 µg/mL (≈ 0.0155 µM); MIC [15]: <0.002 µg/mL; MIC [16]: 0.195 µg/mL (≈ 0.431 µM); MIC [17]: 0.098 µg/mL (≈ 0.217 µM); MIC [18]: 0.195 µg/mL (≈ 0.431 µM)
3 | COc1c(N2CCC(N)(c3ccncc3)C2)c(F)cc2c(=O)c(C(=O)O)cn(C3CC3)c12 (stereo not shown) [Compound 11, 1-cyclopropyl-6-fluoro-8-methoxy-7-[{3-amino-3-(pyridin-4-yl)pyrrolidin}-1-yl]-4-oxo-1,4-dihydroquinolin-3-carboxylic acid] | – | – | – | – | – | – | – | – | – | – | – | – | – | – | – | 1,000 μg/ml | 0.4 | 0.007 (≈ 0.016 µM) | 0.013 (≈ 0.0296 µM) | 0.007 (≈ 0.016 µM) | MIC [4]: 0.025 µg/mL (≈ 0.057 µM); MIC [21]: 0.002 µg/mL (≈ 0.00456 µM); MIC [5]: 0.013 µg/mL (≈ 0.0296 µM); MIC ([6]; 10^7 CFU/ml): 0.025 µg/mL (≈ 0.057 µM); MIC ([7]; 10^7 CFU/ml): 0.013 µg/mL (≈ 0.0296 µM); MIC [8]: 0.002 µg/mL (≈ 0.00456 µM); MIC [9, 28]: 0.013 µg/mL (≈ 0.0296 µM); MIC [10, 29]: 0.013 µg/mL (≈ 0.0296 µM); MIC [11, 30]: 0.098 µg/mL (≈ 0.224 µM); MIC [12]: 0.013 µg/mL (≈ 0.0296 µM); MIC [13, 31]: 0.049 µg/mL (≈ 0.112 µM); MIC [22]: 0.004 µg/mL (≈ 0.00912 µM); MIC [14]: 0.007 µg/mL (≈ 0.016 µM); MIC [15]: <0.002 µg/mL; MIC [16]: 0.195 µg/mL (≈ 0.445 µM); MIC [17]: 0.195 µg/mL (≈ 0.445 µM); MIC [18]: 0.195 µg/mL (≈ 0.445 µM)
4 | CC1CN(c2c(F)c(N)c3c(=O)c(C(=O)O)cn(C4CC4)c3c2F)CC(C)N1 (stereo not shown) [Sparfloxacin, 1-cyclopropyl-5-amino-6,8-difluoro-7-(3,5-dimethylpiperazin-1-yl)-4-oxoquinoline-3-carboxylic acid, reference compound] | 0.013 (≈ 0.0331 µM) | 0.007 (≈ 0.0178 µM) | 0.391 (≈ 0.996 µM) | 0.025 (≈ 0.0637 µM) | 0.391 (≈ 0.996 µM) | 0.098 (≈ 0.25 µM) | < 0.002 | 0.195 (≈ 0.497 µM) | 0.025 (≈ 0.0637 µM) | 0.195 (≈ 0.497 µM) | 0.049 (≈ 0.125 µM) | 0.004 (≈ 0.0102 µM) | 0.781 (≈ 1.99 µM) | 0.781 (≈ 1.99 µM) | 0.781 (≈ 1.99 µM) | 500 µg/mL | 1.0 | – | – | – | MIC ([2]; A77, Streptococcus pyogenes A 77, 10^7 CFU/ml, 37° C., 18 hours, read-out: MIC): 0.195 µg/mL (≈ 0.497 µM); MIC ([21]; read-out: MIC): 0.004 µg/mL (≈ 0.0102 µM); MIC ([9]; Staphylococcus aureus 285, 10^7 CFU/ml, 37° C., 18 hours, read-out: MIC): 0.049 µg/mL (≈ 0.125 µM); MIC ([22]; read-out: MIC): 0.007 µg/mL (≈ 0.0178 µM)
